Measured values: PMC7076440, “New Preclinical Development of a c-Met Inhibitor and Its Combined Anti-Tumor Effect in c-Met-Amplified NSCLC” (Pharmaceutics, 2020)
Converted amounts (≈) assume the structure as drawn.

Assays:
Assay type in all cases: physicochemical
[1] = Forced degradation study
Method: ABN401 was dissolved in 50/50 (v/v) % of acetonitrile and water, to give a stock solution of 2 mg/mL. The stock sample was diluted to a final concentration of 0.5 mg/mL and subjected to various stresses such as 1.0 N HCl acid (pH 1.1), 1.0 N NaOH base (pH 12.3), 1.0% hydrogen peroxide, heat (in solution and as a solid material) in an oven at 60 °C, and UV-Vis light (in solution) in a closed quartz container at 20 °C with UV light at 16.08 mW/m2; Vis 5.7 kLux. The samples were tested with quantitative HPLC method at 24, 48, and 72 h. The results were expressed in area % for recovery. The control sample was left at ambient conditions to simulate the potential loss of ABN401 when left at ambient conditions (> 99.0%).

[2] = Dissolution test, USP Apparatus 2; conditions: for time to reach 100% release: 50 and 200 mg
Method: A dissolution test was carried out according to USP 36 Apparatus 2 (paddle method) at 100 rpm using 900 mL of dissolution medium maintained at 37 ± 0.5 °C (Varian 705 DS; Varian, Cary, NC, USA). Each capsule was enclosed in a stationary sinker (20 × 12 mm) to prevent the capsule from floating on the surface of the dissolution medium or sticking to the inner surface of the dissolution vessels (n = 4). The drug content was analyzed with an HPLC system using samples collected in Eppendorf tubes and centrifuged for 1 min.

[3] = pH solubility and pKa determination; conditions: for solubility at 24 h: aqueous HCl/NaOH solution, aqueous buffer, thermodynamic from solid
Method: Solutions at pH values of 1 to 12 were prepared using HCl and NaOH. At first, 10^−1 N, 10^−2 N, 10^−3 N, 10^−4 N, 10^−5 N, and 10^−6 N of HCl and NaOH solutions were prepared and their pH values were measured with a pH meter (Metrohm 827 pH lab, Zurich, Switzerland). One milliliter of the 10^−4 N, 10^−5 N, and 10^−6 N of HCl and NaOH solutions was withdrawn and diluted in a 100 mL flask for more coordination. In each prepared solution (n = 3), excess ABN401 was dissolved and mixed for 24 h. All samples were centrifuged for 1 min at 12,000 rpm. The pH solubility of ABN401 was analyzed by HPLC and the pKa was determined by plotting a graph of log(solubility) against pH.

## CN1CCN(Cc2ccc(-c3cnc(N4CCOC(Cn5nnc6ncc(-c7cnn(C)c7)nc65)C4)nc3)cc2)CC1 (stereo not drawn) [ABN401]
[1]; 1.0 N HCl (pH 1.1), 1.0 N NaOH (pH 12.3), 72 h
  difference after exposure to acidic and basic pH: approximately 1.7%
[1]; in solution
  sensitivity to UV/Vis light: highly sensitive
[1]; left at ambient conditions, area %
  recovery of control sample: > 99.0%
[2]; 50 mg physical blend capsules with and without excipients (starch, MCC), pH 1.2 medium
  dissolved in less than 45 min: above 85%
[2]; high shear granulated blend in capsule
  time to reach 100% release: ≤ 60 min
[2]; optimized granulation blend in capsule, pH 1.2 medium
  time to reach 100% release: ≤ 30 min
[3]; aqueous HCl and NaOH solutions, pH 1 to 12, from plot of log(solubility) against pH, read-out: apparent pKa
  pKa at 24 h: 7.49
[3]; above neutral pH
  solubility at 24 h: ≤ 0.01 mg/mL
[3]; pH 2.28 (highest)
  solubility at 24 h: 26.9 mg/mL (≈ 47.4 mM)
